According to ChEMBL document CHEMBL1201862, “PubChem BioAssay data set” (2004):
The source made the active and inactive calls.

Legend:
[1] = target: T1, Replicative DNA helicase DnaB (Mycobacterium tuberculosis, UniProt P9WMR3); assay: DnaB intein splicing inhibitors, dose response, biochemical, cell-free fluorescence (AID 449749); format: functional
T1 sequence (P9WMR3 whole entry): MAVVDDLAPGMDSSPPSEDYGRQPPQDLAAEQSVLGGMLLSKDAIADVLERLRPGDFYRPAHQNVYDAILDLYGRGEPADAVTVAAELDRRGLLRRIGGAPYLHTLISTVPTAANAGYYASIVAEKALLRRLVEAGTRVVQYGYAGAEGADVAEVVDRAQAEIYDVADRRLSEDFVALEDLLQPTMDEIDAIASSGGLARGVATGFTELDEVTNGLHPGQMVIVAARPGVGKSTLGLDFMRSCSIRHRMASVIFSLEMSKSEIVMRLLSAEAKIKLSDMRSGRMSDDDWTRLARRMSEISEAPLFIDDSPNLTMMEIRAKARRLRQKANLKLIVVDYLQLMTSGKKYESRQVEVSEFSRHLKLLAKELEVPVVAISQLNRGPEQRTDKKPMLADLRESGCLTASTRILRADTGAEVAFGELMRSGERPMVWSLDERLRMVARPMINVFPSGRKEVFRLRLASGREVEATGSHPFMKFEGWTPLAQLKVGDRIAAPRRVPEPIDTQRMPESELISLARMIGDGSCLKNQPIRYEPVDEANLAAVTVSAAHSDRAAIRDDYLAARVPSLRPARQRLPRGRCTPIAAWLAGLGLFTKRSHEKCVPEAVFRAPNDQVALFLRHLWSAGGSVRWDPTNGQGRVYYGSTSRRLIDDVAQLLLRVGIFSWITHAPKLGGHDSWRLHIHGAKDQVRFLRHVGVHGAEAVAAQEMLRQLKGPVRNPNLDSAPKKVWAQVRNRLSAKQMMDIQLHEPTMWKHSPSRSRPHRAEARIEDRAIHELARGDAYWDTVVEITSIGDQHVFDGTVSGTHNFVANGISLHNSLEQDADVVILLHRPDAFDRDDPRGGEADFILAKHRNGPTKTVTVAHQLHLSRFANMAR

Protein RecA = target: T2, Protein RecA (Mycobacterium tuberculosis, UniProt P9WHJ3); assay: Fluorescence Cell-Free Homogeneous Dose Retest to Identify Inhibitors of RecA-Intein Splicing Activity. [Related pubchem assays (depositor defined):AID2097, AID2223, AID489010, AID492950]; format: functional
T2 sequence (P9WHJ3 whole entry): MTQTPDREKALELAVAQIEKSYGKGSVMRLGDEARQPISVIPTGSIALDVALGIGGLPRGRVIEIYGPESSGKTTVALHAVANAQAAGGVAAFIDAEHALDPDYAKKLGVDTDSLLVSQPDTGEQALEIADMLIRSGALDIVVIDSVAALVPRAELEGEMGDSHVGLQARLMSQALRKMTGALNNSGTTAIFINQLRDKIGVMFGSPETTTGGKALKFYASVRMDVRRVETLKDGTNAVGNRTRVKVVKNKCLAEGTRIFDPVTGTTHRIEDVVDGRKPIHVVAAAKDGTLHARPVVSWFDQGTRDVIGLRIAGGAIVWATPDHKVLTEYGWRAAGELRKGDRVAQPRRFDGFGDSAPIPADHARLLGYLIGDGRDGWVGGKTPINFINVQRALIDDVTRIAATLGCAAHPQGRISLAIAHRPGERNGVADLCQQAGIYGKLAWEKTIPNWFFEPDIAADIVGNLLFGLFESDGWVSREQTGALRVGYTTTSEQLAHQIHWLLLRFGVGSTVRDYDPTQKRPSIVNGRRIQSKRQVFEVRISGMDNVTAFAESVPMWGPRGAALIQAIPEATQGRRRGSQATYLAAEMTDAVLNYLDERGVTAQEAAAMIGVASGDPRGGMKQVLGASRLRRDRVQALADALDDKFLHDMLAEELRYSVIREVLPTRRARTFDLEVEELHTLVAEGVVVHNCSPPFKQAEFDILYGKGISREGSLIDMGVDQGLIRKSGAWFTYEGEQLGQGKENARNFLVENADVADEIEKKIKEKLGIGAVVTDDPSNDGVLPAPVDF

[2] = target: Ras and Rab interactor 1/Tyrosine-protein kinase ABL1 (Homo sapiens, UniProt P00519+Q13671); format: functional;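 note: biochemical TR-FRET dose-response test measuring inhibition of binding between Rin1 and Abl proteins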
[3] = target: T3, Small ubiquitin-related modifier 1 (Homo sapiens, UniProt P63165); assay: SUMO1 protein interaction blockers, potency – biochemical, fluorescence polarization, uHTS hits, dose response (AID 624382); format: functional; conditions: read-out: IC50_Mean
[4] = target: T3, Small ubiquitin-related modifier 1; assay: SUMO1 protein-protein binding blockers, potency – biochemical, FRET, dose response (AID 624383); format: functional; conditions: read-out: IC50_Mean
Insulin-degrading enzyme [5] = target: T4, Insulin-degrading enzyme (Homo sapiens, UniProt P14735); assay: recombinant IDE activation, cell-free – biochemical, fluorescence polarization, counter-screen for IDE activator project, dose response (AID 588681)
T4 sequence (P14735 whole entry): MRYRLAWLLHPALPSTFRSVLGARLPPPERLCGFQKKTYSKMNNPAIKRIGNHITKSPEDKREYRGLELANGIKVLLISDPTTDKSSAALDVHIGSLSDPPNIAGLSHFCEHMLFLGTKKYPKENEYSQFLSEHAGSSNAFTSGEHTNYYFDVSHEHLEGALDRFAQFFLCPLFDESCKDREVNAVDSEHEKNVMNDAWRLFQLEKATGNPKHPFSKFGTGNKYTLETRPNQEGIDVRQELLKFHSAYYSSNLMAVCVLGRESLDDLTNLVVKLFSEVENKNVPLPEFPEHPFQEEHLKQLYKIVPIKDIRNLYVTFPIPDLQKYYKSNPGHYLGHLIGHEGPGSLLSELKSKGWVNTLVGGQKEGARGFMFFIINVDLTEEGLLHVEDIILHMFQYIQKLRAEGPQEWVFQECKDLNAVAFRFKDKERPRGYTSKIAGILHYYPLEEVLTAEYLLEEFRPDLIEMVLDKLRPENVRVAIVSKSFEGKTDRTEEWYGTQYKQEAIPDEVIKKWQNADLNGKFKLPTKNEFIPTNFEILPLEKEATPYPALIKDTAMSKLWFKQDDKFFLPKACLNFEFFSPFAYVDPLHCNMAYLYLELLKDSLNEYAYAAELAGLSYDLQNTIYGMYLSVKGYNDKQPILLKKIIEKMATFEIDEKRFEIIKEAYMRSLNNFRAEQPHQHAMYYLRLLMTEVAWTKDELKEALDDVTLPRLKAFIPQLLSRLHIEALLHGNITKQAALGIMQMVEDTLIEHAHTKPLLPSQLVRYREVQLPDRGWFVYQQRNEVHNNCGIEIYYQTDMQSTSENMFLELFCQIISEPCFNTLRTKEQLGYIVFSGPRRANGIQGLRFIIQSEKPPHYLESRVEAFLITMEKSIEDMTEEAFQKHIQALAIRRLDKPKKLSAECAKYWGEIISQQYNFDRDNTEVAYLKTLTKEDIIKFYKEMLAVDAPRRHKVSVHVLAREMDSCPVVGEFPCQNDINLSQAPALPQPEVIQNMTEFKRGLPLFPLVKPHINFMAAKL

Insulin-degrading enzyme [6] = target: T4, Insulin-degrading enzyme; assay: cellular IDE activation of Abeta substrate cleavage – fluorescence polarization, HEK cells, dose response (AID 588439); format: functional, cell-based
HEK293 [7] = assay: membrane integrity loss in HEK cells – cell-based, fluorescence, cytotoxicity control for IDE activator project, dose response (AID 588440); format: functional; conditions: Homo sapiens;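 note: cytotoxicity by LDH release measuring loss of membrane integrity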
HEK293 [8] = assay: optical interference in Abeta FP readout, dose response, artefact control for IDE activator project, biochemical, fluorescence polarization (AID 588442); format: functional, cell-based; conditions: Homo sapiens
Melanocortin receptor 4 = Melanocortin receptor 4 (Homo sapiens, UniProt P32245); assay: inhibitors of MC4R cAMP signaling – cell-based, TR-FRET, biased antagonists, dose response (AID 602298); format: functional;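 note: antagonist potency against agonist-stimulated cAMP production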
[9] = target: T5, Corticotropin-releasing factor receptor 2/Corticotropin-releasing factor-binding protein (Homo sapiens, UniProt P24387+Q13324); assay: Dose Response confirmation of uHTS hits for small molecule antagonists of the CRF-binding protein and CRF-R2 receptor complex.; format: functional; conditions: read-out: IC50_Mean
T5 sequence (Q13324 whole entry): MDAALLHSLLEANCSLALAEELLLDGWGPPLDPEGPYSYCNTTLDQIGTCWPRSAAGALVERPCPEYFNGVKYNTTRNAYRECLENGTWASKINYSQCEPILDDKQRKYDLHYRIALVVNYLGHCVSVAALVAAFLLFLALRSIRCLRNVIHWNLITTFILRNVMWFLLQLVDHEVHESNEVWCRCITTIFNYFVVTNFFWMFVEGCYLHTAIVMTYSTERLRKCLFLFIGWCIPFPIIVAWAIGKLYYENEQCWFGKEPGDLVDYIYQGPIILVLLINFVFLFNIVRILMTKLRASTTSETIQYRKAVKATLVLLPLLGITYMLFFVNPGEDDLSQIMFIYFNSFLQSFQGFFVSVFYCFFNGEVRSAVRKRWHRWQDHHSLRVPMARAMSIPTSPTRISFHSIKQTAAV
T5 sequence (P24387 whole entry): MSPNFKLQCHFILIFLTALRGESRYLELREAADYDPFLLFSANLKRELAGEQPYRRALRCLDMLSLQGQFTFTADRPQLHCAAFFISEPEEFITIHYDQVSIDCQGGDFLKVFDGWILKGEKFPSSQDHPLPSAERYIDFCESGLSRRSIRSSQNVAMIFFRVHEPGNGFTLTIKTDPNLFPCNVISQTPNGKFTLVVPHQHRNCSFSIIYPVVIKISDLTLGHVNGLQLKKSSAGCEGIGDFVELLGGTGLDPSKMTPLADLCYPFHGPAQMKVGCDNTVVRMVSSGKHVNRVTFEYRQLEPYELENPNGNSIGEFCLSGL

[10] = target: T5, Corticotropin-releasing factor receptor 2/Corticotropin-releasing factor-binding protein; assay: activators of CRF receptor 2 with binding protein – uHTS hits, confirmation (AID 602473); format: functional; conditions: read-out: EC50_Mean
[11] = cAMP pathway inhibition in counterscreen cell line – TR-FRET cAMP detection, counter-screen for MC4R biased antagonist project, dose response (AID 602305); format: functional, cell-based;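 note: U2OS cells stimulated with forskolin near its EC80 as the cAMP inducer; potency is for inhibition of forskolin-stimulated cAMP signaling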
[12] = blockers of CRF-binding protein–CRF-R2 complex – cell-based, uHTS hits, 384-well, dose response (AID 651639); format: functional, Homo sapiens; conditions: read-out: IC50_Mean
[13] = target: Hepatocyte nuclear factor 4-alpha (Homo sapiens, UniProt P41235); format: functional, cell-based;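 note: biochemical luminescence-based dose-response counterscreen measuring inhibition of HNF4 dimerization, run alongside a screen for blockers of ABHD5–perilipin-5 interaction; split luciferase complementation of HNF4 fusion proteins in cell lysate measuring dimerization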
Aurora kinase A = target: T6, Aurora kinase A (Homo sapiens, UniProt O14965); format: functional;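 note: value from the Navigating the Kinome kinase panel profiling, panel entry STK6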
T6 sequence (O14965 whole entry): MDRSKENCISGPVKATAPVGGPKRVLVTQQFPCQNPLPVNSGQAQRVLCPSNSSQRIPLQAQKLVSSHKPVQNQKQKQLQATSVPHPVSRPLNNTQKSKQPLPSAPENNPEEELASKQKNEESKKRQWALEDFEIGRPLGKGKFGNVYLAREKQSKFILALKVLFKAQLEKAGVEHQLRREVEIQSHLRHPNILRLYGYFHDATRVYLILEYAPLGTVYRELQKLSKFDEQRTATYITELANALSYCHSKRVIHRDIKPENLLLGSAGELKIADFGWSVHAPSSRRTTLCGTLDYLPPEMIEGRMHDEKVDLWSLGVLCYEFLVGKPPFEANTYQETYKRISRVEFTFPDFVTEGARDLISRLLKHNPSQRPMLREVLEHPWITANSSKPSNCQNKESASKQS

Aurora kinase B = Aurora kinase B (Homo sapiens, UniProt Q96GD4); format: functional
[14] = target: ALK tyrosine kinase receptor (Homo sapiens, UniProt Q9UM73); format: functional;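 note: ALK tested as one member of a kinase panel screen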
[15] = target: Vascular endothelial growth factor receptor 2 (Homo sapiens, UniProt P35968); format: functional
Sequence of Vascular endothelial growth factor receptor 2 (P35968 whole entry): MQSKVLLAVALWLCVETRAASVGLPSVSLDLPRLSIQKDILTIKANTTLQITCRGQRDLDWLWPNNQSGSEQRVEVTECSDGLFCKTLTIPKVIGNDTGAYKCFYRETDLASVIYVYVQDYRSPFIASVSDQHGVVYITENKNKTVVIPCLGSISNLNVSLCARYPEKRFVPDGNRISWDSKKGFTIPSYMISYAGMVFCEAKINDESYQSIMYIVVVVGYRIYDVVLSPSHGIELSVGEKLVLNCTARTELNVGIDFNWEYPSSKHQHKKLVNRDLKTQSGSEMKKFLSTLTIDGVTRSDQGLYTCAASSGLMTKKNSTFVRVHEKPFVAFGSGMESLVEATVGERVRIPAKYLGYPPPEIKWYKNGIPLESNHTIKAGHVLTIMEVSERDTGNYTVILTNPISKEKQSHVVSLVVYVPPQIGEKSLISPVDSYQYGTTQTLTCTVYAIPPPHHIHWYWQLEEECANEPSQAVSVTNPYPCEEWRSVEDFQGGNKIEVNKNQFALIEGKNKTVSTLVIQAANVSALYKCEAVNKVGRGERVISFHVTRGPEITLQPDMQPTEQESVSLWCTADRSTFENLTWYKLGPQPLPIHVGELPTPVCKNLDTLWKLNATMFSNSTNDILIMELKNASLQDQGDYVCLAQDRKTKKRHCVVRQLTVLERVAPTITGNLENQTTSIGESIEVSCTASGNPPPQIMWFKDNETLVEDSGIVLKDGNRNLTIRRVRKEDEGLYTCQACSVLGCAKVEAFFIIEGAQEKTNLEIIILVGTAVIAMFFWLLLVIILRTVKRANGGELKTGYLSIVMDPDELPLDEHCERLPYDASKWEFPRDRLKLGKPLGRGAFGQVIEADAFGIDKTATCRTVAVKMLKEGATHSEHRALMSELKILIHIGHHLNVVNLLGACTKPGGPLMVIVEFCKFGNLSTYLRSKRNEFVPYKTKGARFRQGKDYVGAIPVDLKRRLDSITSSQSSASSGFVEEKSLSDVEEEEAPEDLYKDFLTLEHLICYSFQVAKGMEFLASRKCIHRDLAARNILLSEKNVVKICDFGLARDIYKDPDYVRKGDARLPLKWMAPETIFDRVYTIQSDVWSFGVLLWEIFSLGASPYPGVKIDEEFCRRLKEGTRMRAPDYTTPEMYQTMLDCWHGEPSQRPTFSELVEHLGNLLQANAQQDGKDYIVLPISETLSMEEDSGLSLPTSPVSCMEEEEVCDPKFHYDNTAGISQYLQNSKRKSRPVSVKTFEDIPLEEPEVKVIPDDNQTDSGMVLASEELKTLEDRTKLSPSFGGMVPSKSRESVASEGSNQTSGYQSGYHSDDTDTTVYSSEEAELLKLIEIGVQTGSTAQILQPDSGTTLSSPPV

Sequence of Melanocortin receptor 4 (P32245 whole entry): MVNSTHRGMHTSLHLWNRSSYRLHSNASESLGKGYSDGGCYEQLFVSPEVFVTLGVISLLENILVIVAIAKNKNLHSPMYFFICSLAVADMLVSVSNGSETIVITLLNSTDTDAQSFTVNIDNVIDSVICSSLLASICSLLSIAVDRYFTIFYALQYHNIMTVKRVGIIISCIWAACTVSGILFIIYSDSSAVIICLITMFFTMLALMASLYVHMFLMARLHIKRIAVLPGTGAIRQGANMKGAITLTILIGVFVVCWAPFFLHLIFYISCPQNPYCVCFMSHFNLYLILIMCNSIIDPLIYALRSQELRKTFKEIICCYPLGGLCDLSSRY
T3 sequence (P63165 whole entry): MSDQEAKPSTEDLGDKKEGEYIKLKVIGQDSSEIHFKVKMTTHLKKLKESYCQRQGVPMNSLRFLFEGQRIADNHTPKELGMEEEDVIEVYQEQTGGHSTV
Sequence of Aurora kinase B (Q96GD4 whole entry): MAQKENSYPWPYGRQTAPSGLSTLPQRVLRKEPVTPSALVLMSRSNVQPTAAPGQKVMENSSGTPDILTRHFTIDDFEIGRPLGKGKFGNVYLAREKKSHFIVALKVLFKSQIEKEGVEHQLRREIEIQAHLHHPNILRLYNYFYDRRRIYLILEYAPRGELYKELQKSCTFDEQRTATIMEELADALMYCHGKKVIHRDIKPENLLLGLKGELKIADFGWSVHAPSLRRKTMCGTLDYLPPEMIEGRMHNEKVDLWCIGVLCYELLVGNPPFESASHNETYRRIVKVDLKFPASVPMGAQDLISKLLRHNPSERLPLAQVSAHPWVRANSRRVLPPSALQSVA
Sequence of Ras and Rab interactor 1/Tyrosine-protein kinase ABL1 (P00519 whole entry): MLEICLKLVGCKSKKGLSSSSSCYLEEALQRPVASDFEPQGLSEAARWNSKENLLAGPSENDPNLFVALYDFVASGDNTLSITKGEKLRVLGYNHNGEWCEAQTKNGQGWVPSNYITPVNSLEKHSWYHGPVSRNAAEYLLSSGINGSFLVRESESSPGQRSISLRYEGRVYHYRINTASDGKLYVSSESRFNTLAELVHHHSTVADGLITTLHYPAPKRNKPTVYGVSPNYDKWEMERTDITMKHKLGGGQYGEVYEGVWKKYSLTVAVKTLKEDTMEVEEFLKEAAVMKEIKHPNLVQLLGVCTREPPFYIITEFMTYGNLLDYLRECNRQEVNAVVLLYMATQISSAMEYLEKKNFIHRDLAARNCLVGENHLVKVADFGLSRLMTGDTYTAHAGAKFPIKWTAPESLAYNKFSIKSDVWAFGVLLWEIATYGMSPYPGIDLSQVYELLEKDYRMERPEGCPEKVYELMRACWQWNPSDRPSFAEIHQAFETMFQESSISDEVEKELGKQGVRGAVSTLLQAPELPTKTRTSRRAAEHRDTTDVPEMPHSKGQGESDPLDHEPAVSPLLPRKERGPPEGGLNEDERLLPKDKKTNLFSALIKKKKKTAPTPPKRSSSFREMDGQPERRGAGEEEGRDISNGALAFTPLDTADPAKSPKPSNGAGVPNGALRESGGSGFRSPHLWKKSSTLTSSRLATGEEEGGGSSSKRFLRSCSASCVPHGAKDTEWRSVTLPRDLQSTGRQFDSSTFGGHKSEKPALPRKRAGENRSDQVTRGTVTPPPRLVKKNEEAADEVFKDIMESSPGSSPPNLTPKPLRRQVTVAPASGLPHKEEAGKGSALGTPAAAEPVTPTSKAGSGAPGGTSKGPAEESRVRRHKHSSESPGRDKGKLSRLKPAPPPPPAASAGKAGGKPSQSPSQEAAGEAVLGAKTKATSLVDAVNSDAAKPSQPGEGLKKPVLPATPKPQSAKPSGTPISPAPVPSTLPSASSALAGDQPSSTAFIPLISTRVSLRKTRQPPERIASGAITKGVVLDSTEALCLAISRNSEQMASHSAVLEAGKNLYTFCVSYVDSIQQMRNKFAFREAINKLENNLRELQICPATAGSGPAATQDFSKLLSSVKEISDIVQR
Sequence of Ras and Rab interactor 1/Tyrosine-protein kinase ABL1 (Q13671 whole entry): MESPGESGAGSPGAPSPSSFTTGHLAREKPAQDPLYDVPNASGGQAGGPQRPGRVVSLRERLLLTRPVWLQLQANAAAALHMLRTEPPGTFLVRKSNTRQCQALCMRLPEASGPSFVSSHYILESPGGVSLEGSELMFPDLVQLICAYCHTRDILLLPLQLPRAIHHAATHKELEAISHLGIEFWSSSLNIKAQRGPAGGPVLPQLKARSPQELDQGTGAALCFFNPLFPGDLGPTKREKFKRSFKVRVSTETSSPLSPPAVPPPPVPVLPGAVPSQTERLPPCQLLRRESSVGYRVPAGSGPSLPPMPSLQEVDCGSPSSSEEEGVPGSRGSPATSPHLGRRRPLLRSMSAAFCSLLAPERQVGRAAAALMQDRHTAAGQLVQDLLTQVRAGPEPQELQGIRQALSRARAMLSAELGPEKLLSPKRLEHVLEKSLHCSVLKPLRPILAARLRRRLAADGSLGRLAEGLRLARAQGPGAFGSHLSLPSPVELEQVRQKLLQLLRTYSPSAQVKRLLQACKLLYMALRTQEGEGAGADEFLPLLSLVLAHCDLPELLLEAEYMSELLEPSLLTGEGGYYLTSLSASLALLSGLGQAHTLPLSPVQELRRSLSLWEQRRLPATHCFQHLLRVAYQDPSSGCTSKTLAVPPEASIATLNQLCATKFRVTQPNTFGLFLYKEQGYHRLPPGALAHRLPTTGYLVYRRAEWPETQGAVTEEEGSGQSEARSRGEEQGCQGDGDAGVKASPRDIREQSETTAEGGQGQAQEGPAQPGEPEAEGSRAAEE
Sequence of Hepatocyte nuclear factor 4-alpha (P41235 whole entry, the tested form may be a part): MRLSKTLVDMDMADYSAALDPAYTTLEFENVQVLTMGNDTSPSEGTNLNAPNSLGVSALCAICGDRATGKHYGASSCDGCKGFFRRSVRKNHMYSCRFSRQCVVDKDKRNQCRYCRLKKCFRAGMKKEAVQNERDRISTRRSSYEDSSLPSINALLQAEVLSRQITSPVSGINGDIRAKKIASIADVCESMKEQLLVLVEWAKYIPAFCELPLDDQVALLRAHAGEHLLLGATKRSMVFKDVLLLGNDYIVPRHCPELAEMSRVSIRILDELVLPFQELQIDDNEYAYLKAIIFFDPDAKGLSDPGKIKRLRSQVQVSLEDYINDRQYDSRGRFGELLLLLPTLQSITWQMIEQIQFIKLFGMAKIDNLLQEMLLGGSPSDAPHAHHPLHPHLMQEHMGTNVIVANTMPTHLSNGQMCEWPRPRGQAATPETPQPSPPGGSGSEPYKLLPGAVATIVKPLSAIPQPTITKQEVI

COc1ccc(OC)c(NC(=O)Cc2ccc(NC3=NC4CS(=O)(=O)CC4S3)cc2)c1 (stereo not given)
AC50 [1]: > 380 µM (inactive)
EC50 (Protein RecA): > 380 µM (inactive)
IC50 [2]: 14.1 µM (inactive)

CCCCCC(=O)Nc1nc(C)c(-c2csc(Nc3cc(Cl)ccc3C)n2)s1
IC50 [3]: > 66.6 µM (inactive)
IC50 [4]: 10.7 µM (active)

COC(=O)c1ccc(COC(=O)c2ccc(-n3cnnn3)cc2)o1
IC50 [2]: 21.1 µM (inactive)

CC1(c2nnc(Cc3ccccc3)o2)CC(c2c(Cl)cccc2Cl)=NO1 (stereo not given)
EC50 (Insulin-degrading enzyme [5]): > 54.7 µM (inactive)
EC50 (Insulin-degrading enzyme [6]): > 54.7 µM (inactive)
IC50 (HEK293 [7]): > 89.2 µM (inactive)
EC50 (HEK293 [8]): > 55.9 µM (inactive)

O=C(O)c1cnn(-c2nc(-c3ccc(Cl)c(Cl)c3)cs2)c1C(F)(F)F
IC50 (Melanocortin receptor 4): 5 µM (active)
IC50 [9]: 13.2 µM (active)
EC50 [10]: 43.4 µM (active)
IC50 [11]: > 64.6 µM (inactive)
IC50 [12]: 11 µM (active)

NC(=O)c1ccc(SCC(=O)OCC(=O)NCC2CCCCC2)c([N+](=O)[O-])c1
IC50 (Melanocortin receptor 4): > 64.5 µM (inactive)
IC50 [11]: > 64.5 µM (inactive)

O=C1c2ccccc2C(=O)N1SC1CCCCC1
IC50 (Melanocortin receptor 4): 62 µM (inactive)
IC50 [11]: 63.7 µM (inactive)

COc1cc(C(C)=O)ccc1OCc1cn(CC(=O)c2ccc(O)cc2)nn1
IC50 [13]: 5.85 µM (active)

CC(OC(=O)CC1CC2CCC1C2)C(=O)Nc1cccc(S(=O)(=O)N2CCOCC2)c1 (stereo not given)
EC50 (Insulin-degrading enzyme [5]): > 54.7 µM (inactive)
EC50 (Insulin-degrading enzyme [6]): > 54.7 µM (inactive)
IC50 (HEK293 [7]): > 89.2 µM (inactive)
EC50 (HEK293 [8]): > 54.7 µM (inactive)

CN(C)C(=O)C=Cc1ccc(-c2ccc(NC(=O)Nc3cccc(C(F)(F)F)c3)cc2)c2c(N)n[nH]c12
Ki (Aurora kinase A): 0.0398 µM (active)
Ki (Aurora kinase B): 0.00316 µM (active)

NC(=O)c1cccc2nc(-c3ccc(-n4ccc(CN5CCCCC5)c4)cc3)[nH]c12
Ki [14]: > 3.16 µM (inactive)
Ki (Aurora kinase A): > 2 µM (inactive)
Ki [15]: 2 µM (active)
Ki (Aurora kinase B): 0.0398 µM (active)
